One experiment deals with SYK protein kinase (Homo sapiens (Human), UniProt P43405). Briefly: Syk kinase activity inhibition, Caliper mobility shift assay. The experiment is classed as biochemical. As to conditions: Peptide FAM-P22 and ATP, 30 minutes, 28° C. How it is done:
Measure of SYK protein kinase activity was carried out by using the Caliper mobility shift assay. The compound was dissolved with DMSO and diluted with kinase buffer (20 mM HEPES pH 7.5, 0.01% Triton X-100, 5 mM MgCl2, 1 mM MnCl2, 2 mM DTT), and 5 μl of 5 times the final concentration of the compounds (10% DMSO) were added to 384 well plate. […] The mixture was incubated for 30 minutes under 28° C., and 25 μl of stop buffer (100 mM HEPES pH 7.5, 0.015% Brij-35, 0.2% Coating Reagent #3, 50 mM EDTA) was added to terminate the reaction. Conversion rate data was read by Caliper EZ Reader II (Caliper Life Sciences). Conversion rate was converted to inhibition rate data (% inhibition rate=(max−conversion rate)/(max−min)*100). The max refers to the conversion rate of the DMSO control, and min refers to the conversion rate of the enzyme-free control. The curve was drawn with the compound concentration and inhibition rate as the horizontal and vertical coordinates, and the curve was fitted with the XLFit excel add-in version 4.3.1 Software, and IC50 was calculated.

The target of a further experiment is HDAC1 (Homo sapiens (Human), UniProt Q13547). Briefly: HDAC-1 activity inhibition, fluorescence (Synergy MX). The experiment is classed as biochemical. As to conditions: trypsin and Ac-peptide substrate, 60 minutes, room temperature. Here is the method:
HDAC activity was measured by the Synergy MX Multi-Function Microplate Reader. The compounds were dissolved with DMSO, and transferred to a 384 well test plate using an Echo non-contact nanoscale sonic pipetting system. 15 μl of enzyme (HDAC1/HDAC6, respectively) solvent was added, and incubated at room temperature for 15 minutes, then 10 μl of substrate (trypsin and Ac-peptide) solution was added. […] Fluorescence intensity signal was convented into inhibition rate data (% inhibition rate=(max−fluorescence intensity)/(max−min)*100). The max refers to the fluorescence intensity of the DMSO control, and min refers to the fluorescence intensity of the enzyme-free control. The curve was drawn with the compound concentration and inhibition rate as the horizontal and vertical coordinates, and the curve was fitted with the GraphPad Prism V5.0 Software, and IC50 was calculated.

HDAC1, sequence (Q13547 whole entry, species assumed): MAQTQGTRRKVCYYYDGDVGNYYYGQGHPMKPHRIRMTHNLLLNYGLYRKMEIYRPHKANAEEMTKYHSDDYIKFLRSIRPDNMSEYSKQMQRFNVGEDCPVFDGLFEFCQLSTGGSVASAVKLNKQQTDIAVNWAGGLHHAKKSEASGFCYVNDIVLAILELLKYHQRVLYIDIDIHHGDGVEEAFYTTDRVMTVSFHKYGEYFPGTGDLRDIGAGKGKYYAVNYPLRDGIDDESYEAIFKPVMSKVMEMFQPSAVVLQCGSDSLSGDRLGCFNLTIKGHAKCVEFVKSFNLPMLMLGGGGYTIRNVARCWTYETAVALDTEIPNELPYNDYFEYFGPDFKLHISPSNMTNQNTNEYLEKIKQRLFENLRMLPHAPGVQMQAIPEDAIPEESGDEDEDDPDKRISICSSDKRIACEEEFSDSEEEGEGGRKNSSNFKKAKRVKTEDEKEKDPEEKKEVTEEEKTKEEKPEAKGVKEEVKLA

For `CN(CCOCCC(=O)NO)c1ccc(Nc2nc(-c3ccc4cn[nH]c4c3)cn3ccnc23)cc1` [Compound 22], the values for the IC50 on SYK protein kinase and at HDAC1 were less than 50 nM and less than 500 nM, respectively.

As to `O=C(N1CCN2c3ccc(Nc4nc(-c5ccc6cn[nH]c6c5)cn5ccnc45)cc3OC[C@H]2C1)C(F)(F)F` [Compound 9R], the IC50 on SYK protein kinase is less than 100 nM.

In the case of `CN(CCN(C)c1ncc(C(=O)NO)cn1)c1ccc(Nc2nc(-c3ccc4cn[nH]c4c3)cn3ccnc23)cc1` [Compound 23], the figures for the IC50 on SYK protein kinase and on HDAC1 were less than 50 nM and less than 30 nM, respectively.

For `O=C(NO)c1ccc(NC(=O)c2cccc(-c3cn4ccnc4c(Nc4ccc(N5CCOCC5)cc4)n3)c2)cc1` [Compound 13], the IC50 was less than 100 nM at SYK protein kinase and less than 200 nM on HDAC1.

Turning to `CN(CCCCCCC(=O)NO)c1ccc(Nc2nc(-c3ccc4cn[nH]c4c3)cn3ccnc23)cc1` [Compound 20], the IC50 at SYK protein kinase is less than 50 nM; on HDAC1, less than 20 nM.

As for `O=C(CCCCCCn1ncc2ccc(-c3cn4ccnc4c(Nc4ccc(N5CCOCC5)cc4)n3)cc21)NO` [Compound 14], the IC50 is less than 500 nM at SYK protein kinase and less than 20 nM at HDAC1.

What is called IC50 is the concentration that gives 50% inhibition.
